# Experimental data from ChEMBL document CHEMBL1125761, “Synthesis of water-soluble (aminoalkyl)camptothecin analogues: inhibition of topoisomerase I and antitumor activity” (J Med Chem, 1991).
# What was measured:
# Mus musculus [1] = species on record: Mus musculus; assay: Maximally tolerated dose in mice bearing L1210 leukemia.; format: functional
# L1210 = assay: Inhibitory activity […] bearing L1210 leukemia; format: functional, cell-based, Mus musculus
# Mus musculus [2] = species on record: Mus musculus; assay: Effect in increasing life span of mice bearing L1210 leukemia; format: functional
# Mus musculus [3] = species on record: Mus musculus; assay: Compound tested for maximally tolerated dose in mice bearing L1210 leukemia; No toxicity was observed; format: functional
SMILES,MTD (Mus musculus [1]) [µM/kg],"IC50 (L1210; Mus musculus, L1210) [nM]",ILS (Mus musculus [2]) [%],MTD (Mus musculus [3]) [µM/kg],IC50 (L1210; l1210) [nM]
CC[C@@]1(O)C(=O)OCc2c1cc1n(c2=O)Cc2cc3c(CN(C)C)cccc3nc2-1,29,65,88,–,–
CC[C@@]1(O)C(=O)OCc2c1cc1n(c2=O)Cc2cc3c(C)cccc3nc2-1,15,70,>200,–,–
CC[C@@]1(O)C(=O)OCc2c1cc1n(c2=O)Cc2cc3c(CN4CCC(N5CCCCC5)CC4)c(O)ccc3nc2-1,–,270,>44,77,–
CC[C@@]1(O)C(=O)OCc2c1cc1n(c2=O)Cc2cc3c(CNC4CCCCC4)c(O)ccc3nc2-1,47,56,>200,–,–
CCc1c2c(nc3ccc(OC(=O)N4CCC(N5CCCCC5)CC4)cc13)-c1cc3c(c(=O)n1C2)COC(=O)[C@]3(O)CC [IRINOTECAN],245,–,–,–,–
CCc1c2c(nc3ccc(O)cc13)-c1cc3c(c(=O)n1C2)COC(=O)[C@]3(O)CC [7-ETHYL-10-HYDROXYCAMPTOTHECIN],86,–,144,–,–
CCOCc1c(O)ccc2nc3c(cc12)Cn1c-3cc2c(c1=O)COC(=O)[C@]2(O)CC,56,48,125,–,–
CC[C@@]1(O)C(=O)OCc2c1cc1n(c2=O)Cc2cc3c(COCCN(C)C)c(O)ccc3nc2-1,50,180,188,–,–
CCC1(O)C(=O)OCc2c1cc1n(c2=O)Cc2c-1nc1ccc(CC#N)cc1c2C (stereo not drawn),6.4,7.5,106,–,–
CC[C@@]1(O)C(=O)OCc2c1cc1n(c2=O)Cc2cc3c(CNC4CC4)c(O)ccc3nc2-1,48,130,131,–,–
CC[C@@]1(O)C(=O)OCc2c1cc1n(c2=O)Cc2cc3cc(O)ccc3nc2-1 [HYDROXYCAMPTOTHECIN],21,–,78,–,18
CC[C@@]1(O)C(=O)OCc2c1cc1n(c2=O)Cc2cc3cc(CN)ccc3nc2-1,160,90,112,–,–
CC[C@@]1(O)C(=O)OCc2c1cc1n(c2=O)Cc2cc3c(CN(C)C)c(O)ccc3nc2-1 [TOPOTECAN],30,–,173,–,–
CCC1(O)C(=O)OCc2c1cc1n(c2=O)Cc2c-1nc1ccccc1c2CCNC (stereo not drawn),122,44,43,–,–
CC[C@@]1(O)C(=O)OCc2c1cc1n(c2=O)Cc2cc3c(CNCCN(C)C)c(O)ccc3nc2-1,–,49,>94,78,–
CC[C@@]1(O)C(=O)OCc2c1cc1n(c2=O)Cc2cc3cc(C#N)ccc3nc2-1,7.8,80,100,–,–

SMILES,MTD (Mus musculus [1]) [µM/kg],"IC50 (L1210; Mus musculus, L1210) [nM]",ILS (Mus musculus [2]) [%],MTD (Mus musculus [3]) [µM/kg],IC50 (L1210; l1210) [nM]
CC[C@@]1(O)C(=O)OCc2c1cc1n(c2=O)Cc2cc3c(C=O)c(O)ccc3nc2-1,–,260,>75,102,–
CC[C@@]1(O)C(=O)OCc2c1cc1n(c2=O)Cc2cc3c(CN4CCN(C)CC4)c(O)ccc3nc2-1,–,72,>200,74,–
CC[C@@]1(O)C(=O)OCc2c1cc1n(c2=O)Cc2cc3c(CN(C)c4ccccc4)c(O)ccc3nc2-1,83,69,138,–,–
CCC1(O)C(=O)OCc2c1cc1n(c2=O)Cc2c-1nc1ccc(CCN)cc1c2C (stereo not drawn),68,29,>33,–,–
CC[C@@]1(O)C(=O)OCc2c1cc1n(c2=O)Cc2cc3c(CC#N)c(O)ccc3nc2-1,28,400,>200,–,–
CC[C@@]1(O)C(=O)OCc2c1cc1n(c2=O)Cc2cc3ccccc3nc2-1 [CAMPTOTHECIN],22,23,118,–,–
CC[C@@]1(O)C(=O)OCc2c1cc1n(c2=O)Cc2cc3c(CNCCO)c(O)ccc3nc2-1,82,250,62,–,–
CCC1(O)C(=O)OCc2c1cc1n(c2=O)Cc2c-1nc1ccccc1c2CCN(C)C(=O)OCc1ccccc1 (stereo not drawn),128,62,62,–,–
CC[C@@]1(O)C(=O)OCc2c1cc1n(c2=O)Cc2cc3c(C[N+](C)(C)C)c(O)ccc3nc2-1,68,150,>200,–,–
CC[C@@]1(O)C(=O)OCc2c1cc1n(c2=O)Cc2cc3c(CN4CCOCC4)cccc3nc2-1,29,690,144,–,–
CC[C@@]1(O)C(=O)OCc2c1cc1n(c2=O)Cc2cc3c(CN4CCOCC4)c(O)ccc3nc2-1,190,370,83,–,–
CC[C@@]1(O)C(=O)OCc2c1cc1n(c2=O)Cc2cc3c(N)cccc3nc2-1 [9-AMINOCAMPTOTHECIN],8.9,12,94,–,–
CC[C@@]1(O)C(=O)OCc2c1cc1n(c2=O)Cc2cc3cc(P(=O)(O)O)ccc3nc2-1,–,26000,–,155,–
CC[C@@]1(O)C(=O)OCc2c1cc1n(c2=O)Cc2cc3c(CSCCN(C)C)c(O)ccc3nc2-1,–,12,>112,76,–
CC[C@@]1(O)C(=O)OCc2c1cc1n(c2=O)Cc2cc3c(CCN)c(O)ccc3nc2-1,210,360,75,–,–
